This is an account of results in US10030006B2, “Coumarin based Hsp90 inhibitors with urea and ether substituents” (University of Kansas, priority 2013, dated 2018).

Holding throughout (type): cell-based
The subject of one assay is MRC5. Briefly: Anti-proliferation assay, MRC5 (normal). The note with it: Homo sapiens. The essentials: (§1)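 MTS/PMS viability readout after 72 h compound exposure, with 1% DMSO-treated wells set as 100% proliferation. Cells at 2000/well, attached overnight before dosing; IC50 fitted from separate triplicate runs.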
The subject of a further assay is HCT-116. Briefly: Anti-proliferation assay, HCT-116. As for the experimental part: (§2) Cells were maintained in a 1:1 mixture of Advanced DMEM/F12 (Gibco) supplemented with non-essential amino acids, L-glutamine (2 mM), streptomycin (500 μg/mL), penicillin (100 units/mL), and 10% FBS. Cells were grown to confluence in a humidified atmosphere (37° C., 5% CO2), seeded (2000/well, 100 μL) in 96-well plates, and allowed to attach overnight. Compound at varying concentrations in DMSO (1% DMSO final concentration) was added, and cells were returned to the incubator for 72 h. At 72 h, the number of viable cells was determined using an MTS/PMS cell proliferation kit (Promega) per the manufacturer's instructions. Cells incubated in 1% DMSO were used at 100% proliferation, and values were adjusted accordingly. IC50 values were calculated from separate experiments performed in triplicate using GraphPad Prism.

Another assay relates to PC-3. Briefly: Anti-proliferation assay, PC-3. The note with it: Prostate Cancer. In outline:
as §1

For a further assay, the system named is JMAR. Briefly: Anti-proliferation assay, JMAR. Conditions: HSNCC. The essentials:
as §1

Assay [1] concerns SKBr3 (estrogen receptor negative, Her2 over-expressing breast cancer cells). Briefly: Anti-proliferation assay (MTS/PMS, 72 h), SKBr3.
In another assay the test system is MDAMB231. Briefly: Anti-proliferation assay, MDAMB231. Conditions: Tri-Neg. The essentials:
as §1

The test system of a further assay is BCPAP. Briefly: Anti-proliferation assay, BCPAP. Conditions: Thyroid. How it is done: as §2
A further assay deals with A-549. Briefly: Anti-proliferation assay, A-549. The essentials: as §1
The next assay concerns HMLE. Briefly: Anti-proliferation assay, HMLE (normal). The note with it: HMLE. The essentials: as §1
For a further assay, the system named is MDA1986. Briefly: Anti-proliferation assay, MDA1986. The note with it: HSNCC. In outline: as §1
In a further assay the test system is DRO81-1. Briefly: Anti-proliferation assay, DRO81-1. The note with it: Thyroid. In outline: as §1
Assay [2] deals with MCF-7 (estrogen receptor positive breast cancer cells). Briefly: Anti-proliferation assay (MTS/PMS, 72 h), MCF-7.
Assay [3] has as its system SKBr3 and MCF-7 cell lines. Briefly: Anti-proliferative activity against both breast cancer cell lines (results in words). Conditions: for anti-proliferative activity (in words): SKBr3 and MCF-7, Tables 1-5. As for the experimental part:
as §2
The anti-proliferative activity of these compounds is evaluated against two breast cancer cell lines, SKBr3 (estrogen receptor negative, Her2 over-expressing breast cancer cells) and MCF-7 (estrogen receptor positive breast cancer cells).

The mark [4] stands for this setting: Table 6, substituted phenyl ureas.
[5] abbreviates: Table 9, non-aryl ureas, Breast Cancer, read-out: IC50 SKBr3.
The mark [6] stands for this setting: Table 9, non-aryl ureas, Breast Cancer, read-out: IC50 MCF-3.
Setting [7] is: Table 7, prenylated phenyl ureas.
[8] abbreviates: Homo sapiens, SK-BR-3, Table 1, modified benzamide coumarin derivatives, read-out: SKBr3.
[9] abbreviates: Homo sapiens, MCF7, Table 1, modified benzamide coumarin derivatives, read-out: MCF-7.
Setting [10] is: Homo sapiens, SK-BR-3, amide versus urea linkage, read-out: IC50 for SKBr3.
Setting [11] is: Homo sapiens, MCF7, amide versus urea linkage, read-out: IC50 for MCF-3.

Where two headings read alike, the source gives them in different places.

Consider `CC(=O)c1cccc(NC(=O)Nc2cc3ccc(OC4CCN(C)CC4)c(C)c3oc2=O)c1` [m-COCH3, 1-(3-acetylphenyl)-3-(8-methyl-7-((1-methylpiperidin-4-yl)oxy)-2-oxo-2H-chromen-3-yl)urea], for which the IC50 in the assay on MRC5 (MRC5, Table 6, substituted phenyl ureas) was more than 25 µM; with HCT-116 (Homo sapiens, HCT-116, Table 6, substituted phenyl ureas), 0.72 µM; in the assay on PC-3 (Homo sapiens, PC-3, Table 6, substituted phenyl ureas), 1.23 µM; with JMAR (JMAR, Table 6, substituted phenyl ureas), 15.7 µM; in [1] (Homo sapiens, SK-BR-3, Table 6, substituted phenyl ureas, Breast Cancer, read-out: IC50 SKBr3), 0.83 µM; with MDAMB231 (Homo sapiens, MDA-MB-231, Table 6, substituted phenyl ureas), 0.61 µM. The IC50 came to 0.27 µM in the assay with BCPAP (Homo sapiens, BCPAP, Table 6, substituted phenyl ureas); 0.54 µM in the assay on A-549 (Homo sapiens, A549, Table 6, substituted phenyl ureas); 1.9 µM in the assay with HMLE (setting [4]); 21 µM in the assay on MDA1986 (MDA1986, Table 6, substituted phenyl ureas); 13.6 µM in the assay on DRO81-1 (setting [4]); 1.17 µM in assay [2] (Homo sapiens, MCF7, Table 6, substituted phenyl ureas, Breast Cancer, read-out: IC50 MCF-3).

Regarding `Cc1c(OC2CCN(C)CC2)ccc2cc(NC(=O)N3CCN(C)CC3)c(=O)oc12` [drawing 158], the IC50 in the assay with HCT-116 (Table 9, non-aryl ureas) was more than 100 µM; with PC-3 (Table 9, non-aryl ureas), 115 µM; with JMAR (Table 9, non-aryl ureas), more than 25 µM; in [1] (setting [5]) it was more than 50 µM; with MDAMB231 (Table 9, non-aryl ureas), more than 25 µM; with BCPAP (Table 9, non-aryl ureas) it was more than 25 µM. Moreover, the IC50 was 18.3 ± 12 µM in the assay on A-549 (Table 9, non-aryl ureas); more than 25 µM with MDA1986 (Table 9, non-aryl ureas); more than 25 µM with DRO81-1 (Table 9, non-aryl ureas); 32.1 ± 4.78 µM in [2] (setting [6]).

For the compound `CC(=O)Oc1ccc(NC(=O)Nc2cc3ccc(OC4CCN(C)CC4)c(C)c3oc2=O)cc1CC=C(C)C` [OAc, 4-(3-(8-methyl-7-((1-methylpiperidin-4-yl)oxy)-2-oxo-2H-chromen-3-yl)ureido)-2-(3-methylbut-2-en-1-yl)phenyl acetate], the IC50 in the assay on MRC5 (MRC5, Table 7, prenylated phenyl ureas) was 1.8 µM; in the assay on HCT-116 (Homo sapiens, HCT-116, Table 7, prenylated phenyl ureas), 0.34 µM; with PC-3 (Homo sapiens, PC-3, Table 7, prenylated phenyl ureas) it was 0.38 µM; with JMAR (JMAR, Table 7, prenylated phenyl ureas), 0.87 µM; in assay [1] (Homo sapiens, SK-BR-3, Table 7, prenylated phenyl ureas, Breast Cancer, read-out: IC50 SKBr3), 0.54 µM; in the assay on MDAMB231 (Homo sapiens, MDA-MB-231, Table 7, prenylated phenyl ureas), 0.75 µM. Also, the IC50 with BCPAP (Homo sapiens, BCPAP, Table 7, prenylated phenyl ureas) came out at 0.129 µM; in the assay on A-549 (Homo sapiens, A549, Table 7, prenylated phenyl ureas) it was 0.38 µM; in the assay with HMLE (setting [7]) it was 7.2 µM; in the assay with MDA1986 (MDA1986, Table 7, prenylated phenyl ureas) it was 1.32 µM; in the assay on DRO81-1 (setting [7]), 0.53 µM; in [2] (Homo sapiens, MCF7, Table 7, prenylated phenyl ureas, Breast Cancer, read-out: IC50 MCF-3), 0.49 µM.

In the case of `Cc1c(OC2CCN(C)CC2)ccc2cc(NC(=O)NC(c3ccccc3)c3ccccc3)c(=O)oc12` [drawing 162], the IC50 in the assay with HCT-116 (Table 9, non-aryl ureas) was found to be 0.96 ± 0.16 µM; in the assay with PC-3 (Table 9, non-aryl ureas), 1.12 ± 0.05 µM; in the assay with JMAR (Table 9, non-aryl ureas) it was 5.9 µM; in [1] (setting [5]), 0.49 ± 0.07 µM; with MDAMB231 (Table 9, non-aryl ureas), 4.3 µM; in the assay with BCPAP (Table 9, non-aryl ureas), 5.76 µM. Besides, the IC50 in the assay with A-549 (Table 9, non-aryl ureas) was 0.87 ± 0.21 µM; with MDA1986 (Table 9, non-aryl ureas), 7.1 µM; with DRO81-1 (Table 9, non-aryl ureas), 1.3 µM; in [2] (setting [6]), 0.54 ± 0.01 µM.

For the compound `Cc1c(OC2CCN(C)CC2)ccc2cc(NC(=O)N(C)Cc3ccccc3)c(=O)oc12` [drawing 160], the IC50 in the assay with HCT-116 (Table 9, non-aryl ureas) is 183 µM; with PC-3 (Table 9, non-aryl ureas), 28.7 ± 24.6 µM; in the assay with JMAR (Table 9, non-aryl ureas), 7.5 µM; with MDAMB231 (Table 9, non-aryl ureas), more than 25 µM; in the assay with BCPAP (Table 9, non-aryl ureas) it was 0.0084 µM; in the assay with A-549 (Table 9, non-aryl ureas), 138 µM. In addition, the IC50 in the assay on MDA1986 (Table 9, non-aryl ureas) was determined as 13.4 µM; in the assay on DRO81-1 (Table 9, non-aryl ureas), 19.5 µM.

`Cc1c(OC2CCN(C)CC2)ccc2cc(NC(=O)NC(C)(C)C)c(=O)oc12` [drawing 157]: the IC50 in the assay on HCT-116 (Table 9, non-aryl ureas) is 12.1 ± 0.61 µM; with PC-3 (Table 9, non-aryl ureas), 4.54 ± 0.46 µM; in the assay on JMAR (Table 9, non-aryl ureas), 2.1 µM; in [1] (setting [5]), 3.96 ± 0.14 µM; with MDAMB231 (Table 9, non-aryl ureas) it was 3.8 µM; in the assay on BCPAP (Table 9, non-aryl ureas), 2.57 µM. Also, the IC50 in the assay on A-549 (Table 9, non-aryl ureas) is 4.85 ± 0.29 µM; in the assay on MDA1986 (Table 9, non-aryl ureas), 21.5 µM; in the assay with DRO81-1 (Table 9, non-aryl ureas), more than 25 µM; in [2] (setting [6]), 1.77 ± 0.26 µM.

For `Cc1c(OC2CCN(C)CC2)ccc2cc(NC(=O)c3ccc(O)cc3)c(=O)oc12` [Compound 22b, 4-hydroxy-N-(8-methyl-7-(1-methylpiperidin-4-yloxy)-2-oxo-2H-chromen-3-yl)benzamide], the IC50 was 0.84 ± 0.18 µM in [1] (setting [8]) and 1.43 ± 0.08 µM in [2] (setting [9]). In assay [3], the “anti-proliferative activity (in words)” value is given as “decreased anti-proliferative activities”.

Consider `Cc1c(OC2CCN(C)CC2)ccc2cc(NC(=O)Nc3ccccc3)c(=O)oc12` [H, 1-(8-methyl-7-((1-methylpiperidin-4-yl)oxy)-2-oxo-2H-chromen-3-yl)-3-phenylurea], for which the IC50 in [1] (setting [10]) is 0.77 µM; in [2] (setting [11]), 0.89 µM. In addition, the “increase in inhibition, urea versus amide linkage” value in assay [3] (text b189, two breast cancer cell lines) is reported as approximately 15 fold.

With `COc1ccc(C(=O)Nc2cc3ccc(OC4CCN(C)CC4)c(C)c3oc2=O)cc1-c1cccc(OC(C)=O)c1` [Compound 32b, 2′-methoxy-5′-(8-methyl-7-(1-methylpiperidin-4-yloxy)-2-oxo-2H-chromen-3-ylcarbamoyl)biphenyl-3-yl acetate], the IC50 in [1] (Homo sapiens, SK-BR-3, Table 2, modified benzamide and biphenylamide derivatives (in μM), read-out: SKBr3) came out at 0.29 ± 0.01 µM; in assay [2] (Homo sapiens, MCF7, Table 2, modified benzamide and biphenylamide derivatives (in μM), read-out: MCF-7) it was 0.36 ± 0.06 µM. Besides, in assay [3], the “anti-proliferative activity (in words)” value was “increases activity almost three-fold”.

On to `Cc1c(OC2CCN(C)CC2)ccc2cc(NC(=O)NCc3ccccc3)c(=O)oc12` [drawing 159], for which the IC50 in the assay on HCT-116 (Table 9, non-aryl ureas) is 0.66 ± 0.15 µM; in the assay with PC-3 (Table 9, non-aryl ureas) it was 0.87 ± 0.33 µM; with JMAR (Table 9, non-aryl ureas), more than 25 µM; with MDAMB231 (Table 9, non-aryl ureas) it was 7.9 µM; in the assay on BCPAP (Table 9, non-aryl ureas), 0.045 µM; in the assay on A-549 (Table 9, non-aryl ureas), 0.28 ± 0.03 µM. The IC50 with MDA1986 (Table 9, non-aryl ureas) stood at 14.4 µM; with DRO81-1 (Table 9, non-aryl ureas), 14.6 µM.

On to `Cc1c(OC2CCN(C)CC2)ccc2cc(NC(=O)c3ccccc3)c(=O)oc12` [Compound 21d, N-(8-methyl-7-(1-methylpiperidin-4-yloxy)-2-oxo-2H-chromen-3-yl)benzamide], for which the IC50 was 11.5 ± 2 µM in assay [1] (setting [8]), 11.5 µM in [1] (setting [10]), 11.7 ± 1 µM in assay [2] (setting [9]) and 11.7 µM in [2] (setting [11]). For the same compound, the “anti-proliferative activity (in words)” value in [3] was “significantly decreased activity”.

With `CC(C)=CCc1cc(C(=O)Nc2cc3ccc(OCCCNC45CC6CC(CC(C6)C4)C5)c(C)c3oc2=O)ccc1O` [Compound 70j, N-(7-(3-((3S,5S,7S)-adamantan-1-ylamino)propoxy)-8-methyl-2-oxo-2H-chromen-3-yl)-4-hydroxy-3-(3-methylbut-2-en-1-yl)benzamide], the IC50 in assay [1] (Homo sapiens, SK-BR-3, Table 5, alkylether derivatives with cyclic N-substitutions, read-out: SKBr3) turned out to be 0.31 ± 0.04 µM; in assay [2] (Homo sapiens, MCF7, Table 5, alkylether derivatives with cyclic N-substitutions, read-out: MCF-7) it was 0.32 ± 0.03 µM. For the same compound, the “anti-proliferative activity (in words)” value in [3] is given as “good anti-proliferative activity”.

In the case of `Cc1c(OC2CCN(C)CC2)ccc2cc(NC(=O)N(Cc3ccccc3)Cc3ccccc3)c(=O)oc12` [drawing 161], the IC50 with HCT-116 (Table 9, non-aryl ureas) stood at 5.95 ± 2.92 µM; in the assay with PC-3 (Table 9, non-aryl ureas), 1.27 ± 0.09 µM; in the assay with JMAR (Table 9, non-aryl ureas) it was 0.7 µM; in [1] (setting [5]), 1.21 ± 0.02 µM; in the assay on MDAMB231 (Table 9, non-aryl ureas) it was 2.8 µM; with BCPAP (Table 9, non-aryl ureas), 1.81 µM. In addition, the IC50 in the assay with A-549 (Table 9, non-aryl ureas) was 3.57 ± 0.55 µM; in the assay with MDA1986 (Table 9, non-aryl ureas) it was 3.65 µM; with DRO81-1 (Table 9, non-aryl ureas) it was 1.9 µM; in [2] (setting [6]), 3.36 ± 0.16 µM.
